Assay results as given in US8088749B2, “Compositions and methods for treating cancer” (The Regents of the University of Michigan, priority 2007, dated 2012).
“Also recorded” adds a separate entry of the source.

B1: Dvl-2 shRNA 1: shRNA to Dvl-2, sense and anti-sense SEQ ID NOs: 7 and 8 (OriGene) (nucleic acid, listed as Homo sapiens)
sense: CACCTGTAGCTGCCTTTGTTACTCTATTTATTTCGAAAAATAAATAGAGTAACAAAGGCAGCTACA
antisense: AAAATGTAGCTGCCTTTGTTACTCTATTTATTTATTCGAAATAAATAGAGTAACAAAGGCAGCTACA
modifications: the letters are possibly those of the target site
B2: Dvl-2 shRNA 2: shRNA to Dvl-2, sense and anti-sense SEQ ID NOs: 9 and 10 (OriGene) (nucleic acid, listed as Homo sapiens)
sense: CACCGGACCGCATGTGGCTCAAGATCACCATCCCGAAGGATGGTGATCTTGAGCCACATGCGGTCC
antisense: AAAAGGACCGCAGTGGCTCAAGATCACCATCCTTCGGGATGGTGATCTTGAGCCACATGCGGTCC
modifications: the letters are possibly those of the target site

Experiments:
ATDC [1] = assay: ATDC localization after nuclear export inhibition, Panc-1 cells; type: cell-based, human; details: 1 ng/ml, 6 hours
Method: In previous reports, ATDC was described as being predominately cytoplasmic in several cell types (see, e.g., Reymond A, et al., Embo J 2001; 20, 2140-2151; Brzoska P M, et al., Proc. Natl. Acad. Sci. USA 1995; 92, 7824-7828), conflicting with its potential role in the DNA damage response/DNA repair. In localization studies, it was determined that both endogenous ATDC and GFP-tagged ATDC had predominantly cytoplasmic localization, with some staining in the nucleus. To better understand how a protein with predominately cytoplasmic localization might be involved in the DNA response, wild type Panc-1 cells was treated with the nuclear export inhibitor leptomycin B (1 ng/ml) for 6 hours.

ATDC [2] = assay: Western blot analysis of ATDC after miRNA mimic transfection, BXPC-3 cells; type: cell-based, human; details: 36 h after transfection with miRNA mimics
Method: (§1) FIGS. 31A and B are L3.6PL cells, and FIGS. 31 C and D are BXPC3 cells. The lanes in these figures is as follows: 1(a). Lipofectamine2000 only; 2(b). Control miRNA; 3. miR-299-5p; 4. miR-185; 5. miR-522; 6. miR-506; 7. miR-765; 8. miR-362; 9. miR-515-5p; 10. miR-661; 11. miR-525; c. miR-34a; d. miR-34b; e. miR-34c; f. miR-150; g. miR-296; h. miR-500; and i. miR-650.
(§2) For testing the miRNAs for ATDC, Western blot analysis of pancreatic cancer cells transfected was carried out with the miRNAs by Lipofactamine2000. […] They are miR-34a, miR-34c, miR-296, miR-650, miR-299-5p, miR-185, miR-765, miR-522, and miR-362.

ATDC [3] = assay: Western blot analysis of ATDC after miRNA mimic transfection, L3.6PL cells; type: cell-based, human; details: 36 h after transfection with miRNA mimics
Method: as §1, §2

ATDC [4] = assay: ATDC gene expression in gastric cancer KATO III cells; type: cell-based; details: human gastric cancer KATO III cells
Method: Next, the miRNAs regulation of ATDC by qRT-PCR was examined. 24 hours after miRNA mimic transfection of the cancer cells (100 pmol per well in 6-well plates), ATDC mRNA levels were measured by qRT-PCR with TaqMan SYBR Green PCR System (Applied Biosystems). Briefly, total RNA was extracted from the transfected cells using TRIZOL (Invitrogen) according to the manufacturer's instructions. Reverse transcription was performed using a TaqMan Reverse Transcription Kit (Applied Biosystems). For qRT-PCR, 1 μl of gene primers with SYBR Green (Applied Biosystems) in 20 μl of reaction volume was applied. Primers for ATDC: Forward: 5′-[…]-3′ (SEQ ID NO:45), Reverse: 5′-[…]-3′ (SEQ ID NO:46).

Dvl-2 [5] = assay: Western blot after Dvl-2 shRNA transfection, HEK 293 cells; type: cell-based, human; details: transient transfection
Method: (§3) FIG. 26. The oncogenic effects of ATDC are mediated by Dvl-2. (A. B) The effects of Dvl-2 shRNA 1 or 2 on b-catenin expression is shown in representative Western blots of HEK 293 (A) and MiaPaCa2 cells […] with or without ATDC overexpression. (C, D) TCF reporter activity was assessed in Dvl-2 shRNA 1 or 2-transfected HEK 293 (C) or Mia PaCa2 cells (D) with (+) or without (−) ATDC overexpression. The results from 3 separate experiments, performed in triplicate (*p<0.05 vs empty vector-transfected cells). (E. F) MTS proliferation assays in Dvl-2 shRNA1 or 2-transfected HEK 293 (E) and MiaPaCa2 (F) cells with (+) or without (−) ATDC overexpression (n=3, *p<0.05 vs wild type cells). (G) TCF reporter activity was measured in HEK 293, SW480, DLD-1 and HCT-116 cells with vector (white bars) or ATDC (black bars) transfection using the β-catenin responsive TOPFLASH reporter and the mutant control FOPFLASH reporter. The mean of the TOP/FOP ratio, as compared with the activity, for three independent experiments, performed in triplicate. […] The experiments were repeated three times and the data is expressed as the mean±SE. […] 48 hours after transfection, cell growth rates were assessed. […]

Dvl-2 [6] = assay: Western blot after Dvl-2 shRNA transfection, MiaPaCa2 cells; type: cell-based, human; details: transient transfection
Method: as §3

Row | Molecule | ATDC protein levels (ATDC [2]) | ATDC protein levels (ATDC [3]) | other results
1 | CCC(=C/[C@H](C)C/C=C/C(C)=C/[C@@H](C)C(=O)[C@@H](C)[C@H](O)[C@@H](C)C/C(C)=C/C(=O)O)/C=C/[C@@H]1OC(=O)C=C[C@@H]1C [leptomycin B] |  |  | ATDC localization (ATDC [1]): ATDC accumulation in the nucleus; ATDC localization (ATDC [1]; listed as leptomycin): nuclear retention of ATDC
2 | miR-34a: miRNA mimic (UUGUUGGUCGAUUCUGUGACGGU; listed as RNA, chemistry not given here; listed as Homo sapiens) | potently reduced | potently reduced | ATDC gene expression (ATDC [4]): potently down-regulated; also recorded: significantly inhibited
3 | miR-34c: miRNA mimic (CGUUAGUCGAUUGAUGUGACGGA; listed as RNA, chemistry not given here; listed as Homo sapiens) | potently reduced | potently reduced | 
4 | miR-185: miRNA mimic (CUUGACGGAAAGAGAGGU; listed as RNA, chemistry not given here; listed as Homo sapiens) | potently reduced | potently reduced | 
5 | miR-299-5p: miRNA mimic (UACAUACACCCUGCCAUUUGGU; listed as RNA, chemistry not given here; listed as Homo sapiens) | potently reduced | potently reduced | 
6 | miR-362: miRNA mimic (UGAGUGUGGAUCCAAGGUUCCUAA; listed as RNA, chemistry not given here; listed as Homo sapiens) | potently reduced | potently reduced | 
7 | miR-522: miRNA mimic (UUGUGAGAUUUCCCUUGGUAAAA; listed as RNA, chemistry not given here; listed as Homo sapiens) | potently reduced | potently reduced | 
8 | miR-650: miRNA mimic (CAGGACUCUCGCGACGGAGGA; listed as RNA, chemistry not given here; listed as Homo sapiens) | potently reduced | potently reduced; also recorded: less potent | 
9 | miR-765: miRNA mimic (GUAGUGGAAGGAAGAGGAGGU; listed as RNA, chemistry not given here; listed as Homo sapiens) | potently reduced | potently reduced; also recorded: less potent | 
10 | B1 |  |  | levels of Dvl-2 (Dvl-2 [5]): effective; levels of Dvl-2 (Dvl-2 [6]): effective
11 | B2 |  |  | levels of Dvl-2 (Dvl-2 [5]): effective; levels of Dvl-2 (Dvl-2 [6]): effective
